Measured values taken from the NIST ThermoML archive (doi:10.1016/j.jct.2015.07.048).

Assay: xn = mol fraction of the nth substance listed
Conditions: 100 kPa, Liquid; for viscosity: Cone and plate viscometry; for electrical conductivity: Direct current cell with electrodes; for mass density: Vibrating tube method

CCCn1cc[n+](C)c1.O=S(=O)([N-]S(=O)(=O)C(F)(F)F)C(F)(F)F + O=C1CCCO1
Conditions | electrical conductivity [S/m] | mass density [kg/m3] | viscosity [mPa·s]
293.15 K, x1 = 0.05 | 1.04 | 1185.12 | –
293.15 K, x1 = 0.0999 | – | 1229.6 | –
293.15 K, x1 = 0.1 | 1.37 | – | 3.42
293.15 K, x1 = 0.15 | 1.45 | – | 4.3
293.15 K, x1 = 0.1999 | 1.37 | 1295.75 | 5.28
293.15 K, x1 = 0.2912 | 1.2 | 1338.94 | –
293.15 K, x1 = 0.2996 | – | – | 8.1
293.15 K, x1 = 0.4005 | 0.89 | 1377.51 | 11.48
293.15 K, x1 = 0.4986 | 0.707 | 1403.93 | 15.9
293.15 K, x1 = 0.6 | 0.595 | 1425.6 | 21.71
293.15 K, x1 = 0.6997 | 0.498 | 1442.85 | 28.23
293.15 K, x1 = 0.7998 | 0.428 | 1457.11 | 35.85
293.15 K, x1 = 0.8818 | 0.387 | 1467.07 | 43.07
293.15 K, x1 = 1 | 0.355 | 1479.32 | 54.19
298.15 K, x1 = 0.05 | 1.13 | 1180.18 | –
298.15 K, x1 = 0.0999 | – | 1224.68 | –
298.15 K, x1 = 0.1 | 1.5 | – | 3.16
298.15 K, x1 = 0.15 | 1.6 | – | 3.94
298.15 K, x1 = 0.1999 | 1.52 | 1290.81 | 4.75
298.15 K, x1 = 0.2912 | 1.38 | 1333.98 | –
298.15 K, x1 = 0.2996 | – | – | 7.17
298.15 K, x1 = 0.4005 | 1.1 | 1372.56 | 9.96
298.15 K, x1 = 0.4986 | 0.87 | 1398.93 | 13.62
298.15 K, x1 = 0.6 | 0.692 | 1420.58 | 18.38
298.15 K, x1 = 0.6997 | 0.604 | 1437.83 | 23.68
298.15 K, x1 = 0.7998 | 0.526 | 1452.07 | 29.72
298.15 K, x1 = 0.8818 | 0.472 | 1462.02 | 35.46
298.15 K, x1 = 1 | 0.435 | 1474.24 | 43.94
303.15 K, x1 = 0.05 | 1.22 | 1175.2 | –
303.15 K, x1 = 0.0999 | – | 1219.69 | –
303.15 K, x1 = 0.1 | 1.63 | – | 2.92
303.15 K, x1 = 0.15 | 1.75 | – | 3.6
303.15 K, x1 = 0.1999 | 1.67 | 1285.84 | 4.3
303.15 K, x1 = 0.2912 | 1.56 | 1329.01 | –
303.15 K, x1 = 0.2996 | – | – | 6.31
303.15 K, x1 = 0.4005 | 1.22 | 1367.63 | 8.69
303.15 K, x1 = 0.4986 | 1.02 | 1394.03 | 11.81
303.15 K, x1 = 0.6 | 0.796 | 1415.71 | 15.67
303.15 K, x1 = 0.6997 | 0.714 | 1432.97 | 19.81
303.15 K, x1 = 0.7998 | 0.629 | 1447.22 | 24.68
303.15 K, x1 = 0.8818 | 0.564 | 1457.17 | 28.84
303.15 K, x1 = 1 | 0.521 | 1469.4 | 35.92
308.15 K, x1 = 0.05 | 1.31 | 1170.18 | –
308.15 K, x1 = 0.0999 | – | 1214.67 | –
308.15 K, x1 = 0.1 | 1.76 | – | 2.68
308.15 K, x1 = 0.15 | 1.9 | – | 3.3
308.15 K, x1 = 0.1999 | 1.85 | 1280.78 | 3.91
308.15 K, x1 = 0.2912 | 1.75 | 1323.97 | –
308.15 K, x1 = 0.2996 | – | – | 5.67
308.15 K, x1 = 0.4005 | 1.44 | 1362.59 | 7.71
308.15 K, x1 = 0.4986 | 1.27 | 1389.01 | 10.31
308.15 K, x1 = 0.6 | 0.992 | 1410.7 | 13.51
308.15 K, x1 = 0.6997 | 0.827 | 1427.98 | 17.13
308.15 K, x1 = 0.7998 | 0.737 | 1442.24 | 21
308.15 K, x1 = 0.8818 | 0.667 | 1452.2 | 24.51
308.15 K, x1 = 1 | 0.611 | 1464.43 | 30
313.15 K, x1 = 0.05 | 1.42 | 1165.15 | –
313.15 K, x1 = 0.0999 | – | 1209.63 | –
313.15 K, x1 = 0.1 | 1.9 | – | 2.49
313.15 K, x1 = 0.15 | 2.06 | – | 3.06
313.15 K, x1 = 0.1999 | 2.02 | 1275.71 | 3.57
313.15 K, x1 = 0.2912 | 1.94 | 1318.9 | –
313.15 K, x1 = 0.2996 | – | – | 5.1
313.15 K, x1 = 0.4005 | 1.64 | 1357.55 | 6.92
313.15 K, x1 = 0.4986 | 1.44 | 1383.98 | 9.13
313.15 K, x1 = 0.6 | 1.15 | 1405.67 | 11.92
313.15 K, x1 = 0.6997 | 1.03 | 1422.96 | 14.78
313.15 K, x1 = 0.7998 | 0.849 | 1437.25 | 17.93
313.15 K, x1 = 0.8818 | 0.789 | 1447.22 | 20.73
313.15 K, x1 = 1 | 0.71 | 1459.44 | 25.32
318.15 K, x1 = 0.05 | 1.52 | 1159.99 | –
318.15 K, x1 = 0.0999 | – | 1204.53 | –
318.15 K, x1 = 0.1 | 2.03 | – | 2.3
318.15 K, x1 = 0.15 | 2.22 | – | 2.8
318.15 K, x1 = 0.1999 | 2.24 | 1270.69 | 3.25
318.15 K, x1 = 0.2912 | 2.13 | 1313.92 | –
318.15 K, x1 = 0.2996 | – | – | 4.6
318.15 K, x1 = 0.4005 | 1.92 | 1352.58 | 6.2
318.15 K, x1 = 0.4986 | 1.68 | 1379.05 | 8.06
318.15 K, x1 = 0.6 | 1.41 | 1400.79 | 10.43
318.15 K, x1 = 0.6997 | 1.21 | 1418.09 | 12.8
318.15 K, x1 = 0.7998 | 0.997 | 1432.4 | 15.49
318.15 K, x1 = 0.8818 | 0.883 | 1442.41 | 17.84
318.15 K, x1 = 1 | 0.813 | 1454.63 | 21.58
323.15 K, x1 = 0.05 | 1.64 | 1154.83 | –
323.15 K, x1 = 0.0999 | – | 1199.33 | –
323.15 K, x1 = 0.1 | 2.17 | – | 2.13
323.15 K, x1 = 0.15 | 2.38 | – | 2.59
323.15 K, x1 = 0.1999 | 2.41 | 1265.59 | 3.01
323.15 K, x1 = 0.2912 | 2.33 | 1308.85 | –
323.15 K, x1 = 0.2996 | – | – | 4.21
323.15 K, x1 = 0.4005 | 2.1 | 1347.55 | 5.59
323.15 K, x1 = 0.4986 | 1.9 | 1374.04 | 7.24
323.15 K, x1 = 0.6 | 1.64 | 1395.82 | 9.27
323.15 K, x1 = 0.6997 | 1.39 | 1413.16 | 11.31
323.15 K, x1 = 0.7998 | 1.15 | 1427.49 | 13.71
323.15 K, x1 = 0.8818 | 1.03 | 1437.5 | 15.72
323.15 K, x1 = 1 | 0.923 | 1449.73 | 18.82
